According to patent US11970494B2, “6-heteroaryloxy benzimidazoles and azabenzimidazoles as JAK2 inhibitors” (Ajax Therapeutics, Inc., priority 2021, dated 2024):

Biological target: T1, JAK2 (JH1 domain-catalytic, Y1007F,Y1008F) kinase (Homo sapiens, UniProt O60674, Y1007F/Y1008F)
T1 construct: made in house; host or cells: transiently transfected HEK293 cells
Assay: JAK2 Binding Assay (JAK2 JH1 Domain Binding Assay)
Conditions: JAK2 JH1 domain binding, qPCR detection; read-out: JAK2 Kd

T1 sequence (O60674 849-1124 Y1007F/Y1008F limits assumed): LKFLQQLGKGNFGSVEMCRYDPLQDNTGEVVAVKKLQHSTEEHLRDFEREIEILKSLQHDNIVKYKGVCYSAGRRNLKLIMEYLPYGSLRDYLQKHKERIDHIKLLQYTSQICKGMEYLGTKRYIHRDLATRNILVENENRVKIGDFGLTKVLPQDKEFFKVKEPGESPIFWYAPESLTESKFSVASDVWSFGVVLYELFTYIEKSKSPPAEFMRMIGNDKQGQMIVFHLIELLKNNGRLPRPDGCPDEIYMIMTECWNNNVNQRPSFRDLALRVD

Structure (SMILES)	Kd
CC(=O)Nc1cc(Oc2cnc3nc(Nc4cc(C(C)(C)C(F)(F)F)on4)n(C)c3c2C#N)ccn1 [Example I-104, N-(4-((7-cyano-1-methyl-2-((5-(1,1,1-trifluoro-2-methylpropan-2-yl)isoxazol-3-yl)amino)-1H-imidazo[4,5-b]pyridin-6-yl)oxy)pyridin-2-yl)acetamide]	> 5000 nM
CC(=O)Nc1cc(Oc2cnc3nc(Nc4cc(C(F)(F)F)n(C5CC6(COC6)C5)n4)n(C)c3c2C#N)ccn1 [Example I-106, N-(4-((2-((1-(2-oxaspiro[3.3]heptan-6-yl)-5-(trifluoromethyl)-1H-pyrazol-3-yl)amino)-7-cyano-1-methyl-1H-imidazo[4,5-b]pyridin-6-yl)oxy)pyridin-2-yl)acetamide]	10 to 50 nM
COCC(=O)Nc1cc(Oc2cnc3nc(Nc4cc(C(F)(F)F)n(C5CC6(CCOCC6)C5)n4)n(C)c3c2Cl)ccn1 [Example I-107, N-(4-((2-((1-(7-oxaspiro[3.5]nonan-2-yl)-5-(trifluoromethyl)-1H-pyrazol-3-yl)amino)-7-chloro-1-methyl-1H-imidazo[4,5-b]pyridin-6-yl)oxy)pyridin-2-yl)-2-methoxyacetamide]	10 to 50 nM
CC(=O)Nc1cc(Oc2cnc3nc(Nc4cc(N5CCCC5)nc(C(F)(F)F)c4)n(C)c3c2Cl)ccn1 [Example I-111, N-(4-((7-chloro-1-methyl-2-((2-(pyrrolidin-1-yl)-6-(trifluoromethyl)pyridin-4-yl)amino)-1H-imidazo[4,5-b]pyridin-6-yl)oxy)pyridin-2-yl)acetamide]	50 to 1000 nM
CC(=O)Nc1cc(Oc2cnc3nc(Nc4cc5n(n4)CCC54CCC4)n(C)c3c2C#N)ccn1 [Example I-113, N-(4-((7-cyano-2-((5′,6′-dihydrospiro[cyclobutane-1,4′-pyrrolo[1,2-b]pyrazol]-2′-yl)amino)-1-methyl-1H-imidazo[4,5-b]pyridin-6-yl)oxy)pyridin-2-yl)acetamide]	< 10 nM
CC(=O)Nc1cc(Oc2cnc3nc(Nc4cc5n(n4)CCN5C(C)(C)C)n(C)c3c2C#N)ccn1 [Example I-115, N-(4-((2-((1-(tert-butyl)-2,3-dihydro-1H-imidazo[1,2-b]pyrazol-6-yl)amino)-7-cyano-1-methyl-1H-imidazo[4,5-b]pyridin-6-yl)oxy)pyridin-2-yl)acetamide]	< 10 nM
CC(=O)Nc1cc(Oc2cnc3nc(Nc4cc5n(n4)CCN(C)C54CC4)n(C)c3c2C#N)ccn1 [Example I-119]	10 to 50 nM
Cn1c(Nc2cc3n(n2)CCC32CCC2)nc2ncc(Oc3ccnc(NC(=O)O[C@H]4CCOC4)c3)c(C#N)c21 [Example I-120, (S)-tetrahydrofuran-3-yl(4-((7-cyano-2-((5′,6′-dihydrospiro[cyclobutane-1,4′-pyrrolo[1,2-b]pyrazol]-2′-yl)amino)-1-methyl-1H-imidazo[4,5-b]pyridin-6-yl)oxy)pyridin-2-yl)carbamate]	< 10 nM
Cn1c(Nc2cc3n(n2)CCC32CCC2)nc2ncc(Oc3ccnc(NC(=O)O[C@@H]4CCOC4)c3)c(C#N)c21 [Example I-121, (R)-tetrahydrofuran-3-yl (4-((7-cyano-2-((5′,6′-dihydrospiro[cyclobutane-1,4′-pyrrolo[1,2-b]pyrazol]-2′-yl)amino)-1-methyl-1H-imidazo[4,5-b]pyridin-6-yl)oxy)pyridin-2-yl)carbamate]	< 10 nM
Cn1cc(C(F)(F)F)cc(Nc2nc3ncc(Oc4ccnc(NC(=O)NC5COC5)c4)c(C#N)c3n2C)c1=O [Example I-123, 1-(4-((7-cyano-1-methyl-2-((1-methyl-2-oxo-5-(trifluoromethyl)-1,2-dihydropyridin-3-yl)amino)-1H-imidazo[4,5-b]pyridin-6-yl)oxy)pyridin-2-yl)-3-(oxetan-3-yl)urea]	< 10 nM

Now from value to molecule:

Kd	Structure (SMILES)
< 10 nM	CC(=O)Nc1cc(Oc2cnc3nc(Nc4cc(C(F)(F)F)n(C5CC6(COC6)C5)n4)n(C)c3c2Cl)ccn1 [Example I-98, N-(4-((2-((1-(2-oxaspiro[3.3]heptan-6-yl)-5-(trifluoromethyl)-1H-pyrazol-3-yl)amino)-7-chloro-1-methyl-1H-imidazo[4,5-b]pyridin-6-yl)oxy)pyridin-2-yl)acetamide]
< 10 nM	CC(=O)Nc1cc(Oc2cnc3nc(Nc4cc(O[C@H]5CCN(C)C5)cc(C(F)(F)F)c4)n(C)c3c2Cl)ccn1 [Example I-99, (S)-N-(4-((7-chloro-1-methyl-2-((3-((1-methylpyrrolidin-3-yl)oxy)-5-(trifluoromethyl)phenyl)amino)-1H-imidazo[4,5-b]pyridin-6-yl)oxy)pyridin-2-yl)acetamide]
< 10 nM	CC(=O)Nc1cc(Oc2cnc3nc(Nc4cc(O[C@@H]5CCN(C)C5)cc(C(F)(F)F)c4)n(C)c3c2Cl)ccn1 [Example I-100, (R)-N-(4-((7-chloro-1-methyl-2-((3-((1-methylpyrrolidin-3-yl)oxy)(trifluoromethyl)phenyl)amino)-1H-imidazo[4,5-b]pyridin-6-yl)oxy)pyridin-2-yl)acetamide]
< 10 nM	CC(=O)Nc1cc(Oc2cnc3nc(Nc4cc(COC5CN(C)C5)cc(C(F)(F)F)c4)n(C)c3c2Cl)ccn1 [Example I-101, N-(4-((7-chloro-1-methyl-2-((3-(((1-methylazetidin-3-yl)oxy)methyl)-5-(trifluoromethyl)phenyl)amino)-1H-imidazo[4,5-b]pyridin-6-yl)oxy)pyridin-2-yl)acetamide]
< 10 nM	CC(=O)Nc1cc(Oc2cnc3nc(Nc4cc(OC5CN(C)C5)cc(C(F)(F)F)c4)n(C)c3c2Cl)ccn1 [Example I-103, N-(4-((7-chloro-1-methyl-2-((3-((1-methylazetidin-3-yl)oxy)-5-(trifluoromethyl)phenyl)amino)-1H-imidazo[4,5-b]pyridin-6-yl)oxy)pyridin-2-yl)acetamide]
< 10 nM	CC(=O)Nc1cc(Oc2cnc3nc(Nc4ccc(CN(C)C)c(C(F)(F)F)c4)n(C)c3c2C#N)ccn1 [Example I-105, N-(4-((7-cyano-2-((4-((dimethylamino)methyl)-3-(trifluoromethyl)phenyl)amino)-1-methyl-1H-imidazo[4,5-b]pyridin-6-yl)oxy)pyridin-2-yl)acetamide]
< 10 nM	COCC(=O)Nc1cc(Oc2cnc3nc(Nc4cc(C(F)(F)F)n(C5CC6(CCOCC6)C5)n4)n(C)c3c2C#N)ccn1 [Example I-110, N-(4-((2-((1-(7-oxaspiro[3.5]nonan-2-yl)-5-(trifluoromethyl)-1H-pyrazol-3-yl)amino)-7-cyano-1-methyl-1H-imidazo[4,5-b]pyridin-6-yl)oxy)pyridin-2-yl)-2-methoxyacetamide]
< 10 nM	CC(=O)Nc1cc(Oc2cnc3nc(Nc4cc5n(n4)CCOC5(C)C)n(C)c3c2C#N)ccn1 [Example I-112, N-(4-((7-cyano-2-((4,4-dimethyl-6,7-dihydro-4H-pyrazolo[5,1-c][1,4]oxazin-2-yl)amino)-1-methyl-1H-imidazo[4,5-b]pyridin-6-yl)oxy)pyridin-2-yl)acetamide]

Test system: not listed separately
Assay: Caco2 Permeability Assay
Format: in vitro ADME
Conditions: human, pH 7.4, Caco-2, 5 μM, read-out: Efflux Ratio (ER)
Experimental: Preparation of Caco-2 Cells: 50 μL and 25 mL of cell culture medium are added to each well of a Transwell® insert and reservoir, respectively. Then, the HTS Transwell® plates are incubated at 37° C., 5% CO2 for 1 hour before cell seeding. Caco-2 cell cells are diluted to 6.86×10^5 cells/mL with culture medium, and 50 μL of cell suspension are dispensed into the filter well of the 96-well HTS Transwell® plate. Cells are cultivated for 14-18 days in a cell culture incubator at 37° C., 5% CO2, 95% relative humidity. Cell culture medium is replaced every other day, beginning no later than 24 hours after initial plating.
Preparation of Stock Solutions: 10 mM stock solutions of test compounds are prepared in DMSO. The stock solutions of positive controls are prepared in DMSO at the concentration of 10 mM. Digoxin and propranolol are used as control compounds in this assay.
Assessment of Cell Monolayer Integrity: Medium is removed from the reservoir and each Transwell® insert and is replaced with prewarmed fresh culture medium. Transepithelial electrical resistance (TEER) across the monolayer is measured using Millicell Epithelial Volt-Ohm measuring system (Millipore, USA). The Plate is returned to the incubator once the measurement is done. The TEER value is calculated according to the following equation: TEER measurement (ohms)×Area of membrane (cm^2)=TEER value (ohm⋅cm^2). A TEER value greater than 230 ohm⋅cm^2 indicates a well-qualified Caco-2 monolayer.
Assay Procedure: The Caco-2 plate is removed from the incubator and washed twice with pre-warmed HBSS (10 mM HEPES, pH 7.4), and then incubated at 37° C. for 30 minutes. The stock solutions of control compounds are diluted in DMSO to get 1 mM solutions and then diluted with HBSS (10 mM HEPES, pH 7.4) to get 5 μM working solutions. The stock solutions of the test compounds are diluted in DMSO to get 1 mM solutions and then diluted with HBSS (10 mM HEPES and 4% BSA, pH 7.4) to get 5 μM working solutions. The final concentration of DMSO in the incubation system is 0.5%. To determine the rate of drug transport in the apical to basolateral direction. 75 μL of 5 μM working solutions of test compounds are added to the Transwell® insert (apical compartment) and the wells in the receiver plate (basolateral compartment) are filled with 235 μL of HBSS (10 mM HEPES and 4% BSA, pH 7.4). To determine the rate of drug transport in the basolateral to apical direction, 235 μL of 5 μM working solutions of test compounds are added to the receiver plate wells (basolateral compartment) and then the Transwell® inserts (apical compartment) are filled with 75 μL of HBSS (10 mM HEPES and 4% BSA, pH 7.4). Time 0 samples are prepared by transferring 50 μL of 5 μM working solution to wells of the 96-deepwell plate, followed by the addition of 200 μL cold methanol containing appropriate internal standards (IS). The plates are incubated at 37° C. for 2 hours. At the end of the incubation, 50 μL samples from donor sides (apical compartment for Ap→*Bl flux, and basolateral compartment for Bl→Ap) and receiver sides (basolateral compartment for Ap→Bl flux, and apical compartment for Bl→Ap) are transferred to wells of a new 96-well plate, followed by the addition of 4 volume of cold acetonitrile or methanol containing appropriate internal standards (IS). Samples are vortexed for 5 minutes and then centrifuged at 3,220 g for 40 minutes. An aliquot of 100 μL of the supernatant is mixed with an appropriate volume of ultra-pure water before LC-MS/MS analysis. To determine the Lucifer Yellow leakage after 2 hour transport period, stock solution of Lucifer yellow is prepared in ultra-pure water and diluted with HBSS (10 mM HEPES, pH 7.4) to reach the final concentration of 100 μM. 100 μL of the Lucifer yellow solution is added to each Transwell® insert (apical compartment), followed by filling the wells in the receiver plate (basolateral compartment) with 300 μL of HBSS (10 mM HEPES, pH 7.4). […]

efflux ratio at 2 h, 5 μM	Structure (SMILES)
2 to 5	Cn1c(Nc2cc3n(n2)CCCC3(F)F)nc2ncc(Oc3ccnc(NC(=O)N4CCC4)c3)c(C#N)c21 [Example I-30]

Same assay, conditions: human, pH 7.4, Caco-2, apical to basolateral, 5 μM

Papp A→B at 2 h, 5 μM	Structure (SMILES)
3 ×10⁻⁶ cm/s	Cn1c(Nc2cc3n(n2)CCCC3(F)F)nc2ncc(Oc3ccnc(NC(=O)N4CCC4)c3)c(C#N)c21 [Example I-30]
